According to US20030236276A1, “Pyrrolo[2.1-a]isoquinoline derivatives” (priority 2001, published 2003):
pIC50: −log10 of the molar value.

How the values were obtained:
[1] = tested on: MDA-MB-231 human breast carcinoma cells; experiment: In vitro proliferation inhibition assay (LDH activity, 72 hours); assay type: cell-based; conditions: MDA-MB-231 cells; for inhibition at 2 µM: read-out: % inhibition at a concentration of 2 μM; for inhibition at 10 µM: read-out: % inhibition at a concentration of 10 μM
Description: In vitro Proliferation Inhibition Assay:
MDA-MB-231 human breast carcinoma cells (ATCC #HTB26) were cultured in standard growth medium (DMEM), supplemented with 10% heat-inactivated FBS, 10 mM HEPES, 2 mM glutamine, 100 U/mL penicillin, and 100 μg/mL streptomycin) at 37° C. in 5% CO2 (vol/vol) in a humidified incubator. Cells were plated at a density of 3000 cells per well in 100 μL growth medium in a 96 well culture dish. 24 hours after plating, lactate dehydrogenase (LDH) activity was determined using the Cytotox 96 Non-radioactive Cytotoxicity Kit (Promega, Madison Wis., U.S.A.) to yield T0h LDH values. Briefly, cells were lysed with the addition of 200 μL of Lysis Buffer (included in the Promega Kit) and lysates were further diluted 1:50 in Lysis Buffer. 50 μL of diluted cell lysate were transferred to a fresh 96 well culture plate. The assay was initiated with the addition of 50 μL of substrate per well. Color development was allowed to proceed for 10-15 minutes. The assay was terminated with the addition of 50 μL of Stop Solution (included in the Promega Kit). Optical densities were determined spectrophotometrically at 490 nm in a 96 well plate reader (SpectraMax 250, Molecular Devices, Sunnyvale, Calif., U.S.A.).
Test compounds were dissolved in 100% DMSO to prepare 10 mM stocks. Stocks were further diluted 1:250 in growth medium to yield working stocks of 40 μM test compound in 0.4% DMSO. Test compounds were serially diluted in growth medium containing 0.4% DMSO to maintain constant DMSO concentrations for all wells. 50 μL of fresh growth medium and 50 μL of diluted test compound were added to each culture well to give a final volume of 200 μL. The cells with and without individual test compounds were incubated for 72 hours at which time LDH activity was measured to yield T72h values. Optionally, the IC50 values can be determined with a least squares analysis program using compound concentration versus percent inhibition.
% Inhibition=[1−(T72h test−T0h)/(T72h ctrl−T0h)]×100
T72h test=LDH activity at 72 hours in the presence of test compound
T72h ctrl=LDH activity at 72 hours in the absence of test compound
T0h=LDH activity at Time Zero

[2] = molecular target: T1, PDE 10a (Homo sapiens, UniProt Q9Y233); experiment: In vitro enzyme inhibition assay (PDE 10a, scintillation proximity, [3H]cAMP substrate); assay type: biochemical; conditions: full-length recombinant PDE 10a, crude Sf9 cell lysate; 60 minutes, room temperature
T1 construct: Full-length recombinant PDE 10a was expressed in Sf9 insect cells; made in house; host or cells: Sf9 insect cells (baculovirus, Bac-to-Bac)
Description: In vitro Enzyme Inhibition Assay:
Full-length recombinant PDE 10a was expressed in Sf9 insect cells (Invitrogen, Carlsbad, Calif., U.S.A.) using the Bac-to-Bac™ Baculovirus Expression System (Life Technologies, Gaithersburg, Md., U.S.A.). 48 hours post infection, cells were harvested and resuspended in 20 mL (per 1L culture) Lysis Buffer (50 mM Tris-HCl, pH 7.4, 50 mM NaCl, 1 mM MgCl2, 1.5 mM EDTA, 10% glycerol plus 20 μL Protease Inhibitor Cocktail Set III [CalBiochem, La Jolla, Calif., U.S.A.]). Cells were sonicated at 4° C. for 1 minute and centrifuged at 10,000 RPM for 30 minutes at 4° C. Supernatant was removed and stored at −20° C. for activity assays.
The test compounds were serially diluted in DMSO using two-fold dilutions to stock concentrations ranging typically from 200 μM to 1.6 μM (final concentrations in the assay range from 4 μM to 0.032 μM). 96-well assay isoplates (Wallac Inc., Atlanta, Ga., U.S.A.) were loaded with 2 μL of the serially diluted individual test compounds followed by 50 μL of a dilution of crude recombinant PDE 10a-containing sf9 cell lysate. The dilution of the lysate was selected such that less than 70% of the substrate is converted during the later incubation (typical dilution: 1:10000; dilution buffer: 50 mM Tris/HCl pH 7.5, 8.3 mM MgCl2, 1.7 mM EDTA, 0.2% BSA). The substrate, [5′,8-^3H] adenosine 3′,5′-cyclic phosphate (1 μCi/μL; Amersham Pharmacia Biotech., Piscataway, N.J., U.S.A.), was diluted 1:2000 in assay buffer (assay buffer: 50 mM Tris/HCl pH 7.5, 8.3 mM MgCl2, 1.7 mM EDTA) to give a final working concentration of 0.0005 μCi/μL. The enzymatic assay was initiated by addition of 50 μL (0.025 μCi) of diluted substrate. Reactions were incubated at room temperature for 60 minutes and terminated by addition of 25 μL of 18 mg/mL Yttrium Scintillation Proximity Beads (Amersham Pharmacia Biotech., Piscataway, N.J., U.S.A.). Plates were sealed and incubated at room temperature for 60 minutes. Plates were read for 30 seconds/well using a Microbeta counter (Wallac Inc., Atlanta, Ga., U.S.A.). The IC50 values were determined by plotting compound concentration versus percent inhibition.

T1 sequence (Q9Y233 1-779 isoform Q9Y233-1): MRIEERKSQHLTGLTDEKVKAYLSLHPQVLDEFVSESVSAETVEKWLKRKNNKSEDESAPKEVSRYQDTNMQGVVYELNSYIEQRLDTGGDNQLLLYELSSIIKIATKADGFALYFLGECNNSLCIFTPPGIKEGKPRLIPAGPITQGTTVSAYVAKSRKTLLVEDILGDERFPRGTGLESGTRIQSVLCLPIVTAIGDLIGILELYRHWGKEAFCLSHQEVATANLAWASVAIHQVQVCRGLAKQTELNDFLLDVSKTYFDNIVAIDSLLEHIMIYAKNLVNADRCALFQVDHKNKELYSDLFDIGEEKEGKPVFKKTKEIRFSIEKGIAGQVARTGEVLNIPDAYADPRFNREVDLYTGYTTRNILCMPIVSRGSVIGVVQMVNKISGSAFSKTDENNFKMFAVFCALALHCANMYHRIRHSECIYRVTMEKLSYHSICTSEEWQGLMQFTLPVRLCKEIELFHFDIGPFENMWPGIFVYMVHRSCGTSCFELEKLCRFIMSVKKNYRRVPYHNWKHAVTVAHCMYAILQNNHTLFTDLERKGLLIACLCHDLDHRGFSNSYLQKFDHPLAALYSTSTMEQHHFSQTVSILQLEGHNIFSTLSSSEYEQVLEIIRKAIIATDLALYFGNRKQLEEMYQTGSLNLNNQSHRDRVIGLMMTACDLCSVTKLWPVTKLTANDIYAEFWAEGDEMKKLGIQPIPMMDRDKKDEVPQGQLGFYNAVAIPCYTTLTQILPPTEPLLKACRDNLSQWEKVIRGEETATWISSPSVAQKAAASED

## CCOC(=O)c1c(-c2ccc3[nH]cc(C(C)=O)c3c2)c(C)n2c1-c1cc(OC)c(OC)cc1CC2 [Example 72]
[1]
  inhibition at 2 µM: 81%

## CCOC(=O)c1c(-c2cccc3c2ccn3CCC#N)c(C)n2c1-c1cc(OC)c(OC)cc1CC2 [Example 61]
[1]
  inhibition at 2 µM: 90%
[2]
  pIC50: 6.70

## CCOC(=O)c1c(C(C)C)c(C)n2c1-c1cc(OC)c(OC)cc1CC2 [Example 5]
[1]
  inhibition at 10 µM: 87%
[2]
  pIC50: 6.43

## CCOC(=O)c1c(-c2c[nH]c3c(OC)cccc23)c(C)n2c1-c1cc(OC)c(OC)cc1CC2 [Example 46, Ethyl-2-(1H-7-methoxy-indol-3-yl)-8,9-dimethoxy-3-methyl-5,6-dihydropyrrolo[2,1-a]isoquinoline-1-carboxylate]
[1]
  inhibition at 2 µM: 90%
[2]
  pIC50: 6.66

## CCOC(=O)c1c(-c2cccc3c2ccn3CC)c(C)n2c1-c1cc(OC)c(OC)cc1CC2 [Example 57, Ethyl 2-(1-ethyl-1H-indol-4-yl)-8,9-dimethoxy-3-methyl-5,6-dihydropyrrolo[2,1-a]-isoquinoline-1-carboxylate]
[1]
  inhibition at 2 µM: 89%
[2]
  pIC50: 5.82

## CCOC(=O)c1c(-c2cn(C)c3ccccc23)c(C)n2c1-c1cc(OC)c(OC)cc1CC2 [Example 23]
[1]
  inhibition at 2 µM: 90%
[2]
  pIC50: 7.15

## CCOC(=O)c1c(-c2c[nH]c3ccc(Cl)cc23)c(C)n2c1-c1cc(OC)c(OC)cc1CC2 [Example 50]
[1]
  inhibition at 2 µM: 77%
[2]
  pIC50: 6.48

## CCOC(=O)c1c(-c2c[nH]c3cc(F)ccc23)c(C)n2c1-c1cc(OC)c(OC)cc1CC2 [Example 52]
[1]
  inhibition at 2 µM: 81%
[2]
  pIC50: 6.66

## CCOC(=O)c1c(-c2cn(Cc3ccccc3)c3ccccc23)c(C)n2c1-c1cc(OC)c(OC)cc1CC2 [Example 56]
[1]
  inhibition at 2 µM: 64%
[2]
  pIC50: 7.17

## CCOC(=O)c1c(-c2ccc3ncoc3c2)c(C)n2c1-c1cc(OC)c(OC)cc1CC2 [Example 76, Ethyl 2-(1,3-benzoxazol-6-yl)-8,9-dimethoxy-3-methyl-5,6-dihydropyrrolo[2,1-a]isoquinoline-1-carboxylate]
[1]
  inhibition at 2 µM: 63%
[2]
  pIC50: 6.82

## CCCNC(=O)N1CCc2cc(-c3c(C(=O)OCC)c4n(c3C)CCc3cc(OC)c(OC)cc3-4)ccc21 [Example 81]
[1]
  inhibition at 2 µM: 89%
[2]
  pIC50: 7.00

## CCOC(=O)c1c(-c2cccc3cc[nH]c23)c(C)n2c1-c1cc(OC)c(OC)cc1CC2 [Example 49]
[1]
  inhibition at 2 µM: 91%
[2]
  pIC50: 6.96

## CCOC(=O)c1c(-c2c[nH]c3ccc(OC)cc23)c(C)n2c1-c1cc(OC)c(OC)cc1CC2 [Example 12]
[1]
  inhibition at 2 µM: 73%
[2]
  pIC50: 6.44

## CCOC(=O)c1c(-c2cccc3c(C(=O)c4ccccc4)c[nH]c23)c(C)n2c1-c1cc(OC)c(OC)cc1CC2 [Example 71]
[1]
  inhibition at 2 µM: 72%
[2]
  pIC50: 6.77

## CCOC(=O)c1c(-c2ccc3c(c2)CCN3S(=O)(=O)c2ccccc2)c(C)n2c1-c1cc(OC)c(OC)cc1CC2 [Example 87]
[1]
  inhibition at 2 µM: 95%
[2]
  pIC50: > 7.52

## CCOC(=O)c1c(-c2ccc3c(c2)CCN3S(C)(=O)=O)c(C)n2c1-c1cc(OC)c(OC)cc1CC2 [Example 88]
[1]
  inhibition at 2 µM: 40%

## CCOC(=O)c1c(-c2cn(C(C)=O)c3ccccc23)c(C)n2c1-c1cc(OC)c(OC)cc1CC2 [Example 8]
[1]
  inhibition at 10 µM: 84%
[2]
  pIC50: 7.03

## CCOC(=O)c1c(-c2cccc3ncc(C)cc23)c(C)n2c1-c1cc(OC)c(OC)cc1CC2 [Example 7]
[1]
  inhibition at 10 µM: 85%
[2]
  pIC50: 6.85

## CCOC(=O)c1c(-c2cccc3c(C(=O)C4CC4)c[nH]c23)c(C)n2c1-c1cc(OC)c(OC)cc1CC2 [Example 68, Ethyl 2-[3-(cyclopropylcarbonyl)-1H-indol-7-yl]-8,9-dimethoxy-3-methyl-5,6-dihydropyrrolo[2,1-a]isoquinoline-1-carboxylate]
[1]
  inhibition at 2 µM: 43%
